Measured values from PMC7343746, “(2S, 4R)-4-[^18F]Fluoroglutamine for In vivo PET Imaging of Glioma Xenografts in Mice: an Evaluation of Multiple Pharmacokinetic Models” (Molecular Imaging and Biology, 2020).

System: patient-derived BT3 glioma cells
Test: 2-Compartment model, orthotopic model
Type: in vivo, BALB/cOlaHsd-Foxn1^nu mouse
Method: Image analysis was performed using CARIMAS software published and freely distributed by the Turku PET Center (http://turkupetcentre.fi/carimas/). CT scans were used as rough anatomical reference while tumor regions of interest (ROI) were hand-drawn based upon observed spikes of radioactivity in the PET images at locations correlating with recorded tumor grafts. Control muscle ROIs were drawn on the side opposite to the tumor in the leg flank muscle (based on CT) while the blood ROI was drawn based upon heart anatomical location and observed PET image radioactivity spike during the initial 20 s of imaging in the left ventricle. Standardized uptake values (SUV) were calculated with respect to ROI volume, mean and max tumor radioactivity, total injected radioactivity dose (corrected for tail, cannula, and syringe residual radioactivity), and animal weight, and were additionally presented as tumor-to-background ratio (TBR, tumor-to-healthy brain region for intracranial gliomas and tumor-to-muscle for subcutaneous gliomas) as defined by recent glioma research literature standards. Mean and maximum TBR values were reported as ROI radioactivity per volume divided by mean background radioactivity per volume. The blood radioactivity SUV and gender-specific metabolite-corrected blood radioactivity SUV were then applied to multiple pharmacokinetic models to characterize the flux of the tracer (further described in the “Modeling” section).
Using the heart’s left ventricle ROI from the PET data as an uncorrected radioactivity level input and the bioavailable parent-tracer fraction (results: Eqs. 3 and 4 applied to the uncorrected input) as the corrected input, multiple models were investigated to characterize the tissue uptake dynamics. Two-compartment modeling and Logan, Patlak, and Yokoi plots were used to separately model the pharmacokinetics for the gliomas (both subcutaneous and orthotopic loci) and their respective control tissues (healthy muscle and healthy brain, respectively). Where indicated, means plus/minus standard deviations are reported. Difference in parameters for uncorrected versus correct and target tissue versus their respective control regions were tested with students’ paired t tests with P values lower than 0.05 being considered significant.

[1] = Subject A brain (control), arterial blood input
[2] = Subject A brain (control), plasma-corrected input
[3] = Subject A glioma max., arterial blood input
[4] = Subject A glioma max., plasma-corrected input
[5] = Subject A o.t. glioma, arterial blood input
[6] = Subject A o.t. glioma, plasma-corrected input
[7] = Subject B brain (control), arterial blood input
[8] = Subject B brain (control), plasma-corrected input
[9] = Subject B glioma max., arterial blood input
[10] = Subject B glioma max., plasma-corrected input
[11] = Subject B o.t. glioma, arterial blood input
[12] = Subject B o.t. glioma, plasma-corrected input

`NC(=O)[C@H]([18F])C[C@H](N)C(=O)O` [[^18F]FGln, (2S, 4R)-4-[^18F]fluoroglutamine] was tested, and the “2-Compartment K1” value [1] was 0.015 mL min-1 mL-1, the “2-Compartment K1/k2” value [1] was 0.143 mL mL-1 and the 2-Compartment Vb [1] was 7.82%. The “2-Compartment k3” value [1] was 0.032 min⁻¹, the “2-Compartment k3*K1/k2” value [1] was 0.005 and the “2-Compartment k3/(k2+k3)” value [1] was 0.235. The “2-Compartment K1” value [2] was 0.016 mL min-1 mL-1, the “2-Compartment K1/k2” value [2] was 0.210 mL mL-1 and the 2-Compartment Vb [2] was 7.77%. For the same molecule, the “2-Compartment k3” value [2] was 0.051 min⁻¹, the “2-Compartment k3*K1/k2” value [2] was 0.011 and the “2-Compartment k3/(k2+k3)” value [2] was 0.396. For the same molecule, the “2-Compartment K1” value [3] was 0.149 mL min-1 mL-1, the “2-Compartment K1/k2” value [3] was 1.169 mL mL-1 and the 2-Compartment Vb [3] was 20%. The “2-Compartment k3” value [3] was 0.015 min⁻¹, the “2-Compartment k3*K1/k2” value [3] was 0.018 and the “2-Compartment k3/(k2+k3)” value [3] was 0.105. The “2-Compartment K1” value [4] was 0.156 mL min-1 mL-1, the “2-Compartment K1/k2” value [4] was 1.769 mL mL-1 and the 2-Compartment Vb [4] was 20%. The “2-Compartment k3” value [4] was 0.023 min⁻¹, the “2-Compartment k3*K1/k2” value [4] was 0.041 and the “2-Compartment k3/(k2+k3)” value [4] was 0.208. The “2-Compartment K1” value [5] was 0.116 mL min-1 mL-1, the “2-Compartment K1/k2” value [5] was 0.919 mL mL-1 and the 2-Compartment Vb [5] was 11.5%. The “2-Compartment k3” value [5] was 0.018 min⁻¹, the “2-Compartment k3*K1/k2” value [5] was 0.016 and the “2-Compartment k3/(k2+k3)” value [5] was 0.122. The “2-Compartment K1” value [6] was 0.123 mL min-1 mL-1, the “2-Compartment K1/k2” value [6] was 1.373 mL mL-1 and the 2-Compartment Vb [6] was 11.6%. For the same molecule, the “2-Compartment k3” value [6] was 0.027 min⁻¹, the “2-Compartment k3*K1/k2” value [6] was 0.038 and the “2-Compartment k3/(k2+k3)” value [6] was 0.234. The “2-Compartment K1” value [7] was 0.017 mL min-1 mL-1, the “2-Compartment K1/k2” value [7] was 0.127 mL mL-1 and the 2-Compartment Vb [7] was 5.5%. The “2-Compartment k3” value [7] was 0.031 min⁻¹, the “2-Compartment k3*K1/k2” value [7] was 0.004 and the “2-Compartment k3/(k2+k3)” value [7] was 0.186. For the same molecule, the “2-Compartment K1” value [8] was 0.018 mL min-1 mL-1, the “2-Compartment K1/k2” value [8] was 0.168 mL mL-1 and the 2-Compartment Vb [8] was 5.52%. The “2-Compartment k3” value [8] was 0.051 min⁻¹, the “2-Compartment k3*K1/k2” value [8] was 0.009 and the “2-Compartment k3/(k2+k3)” value [8] was 0.318. The “2-Compartment K1” value [9] was 0.102 mL min-1 mL-1, the “2-Compartment K1/k2” value [9] was 0.447 mL mL-1 and the 2-Compartment Vb [9] was 13.3%. For the same molecule, the “2-Compartment k3” value [9] was 0.036 min⁻¹, the “2-Compartment k3*K1/k2” value [9] was 0.016 and the “2-Compartment k3/(k2+k3)” value [9] was 0.137. For the same molecule, the “2-Compartment K1” value [10] was 0.111 mL min-1 mL-1, the “2-Compartment K1/k2” value [10] was 0.515 mL mL-1 and the 2-Compartment Vb [10] was 13.4%. The “2-Compartment k3” value [10] was 0.062 min⁻¹, the “2-Compartment k3*K1/k2” value [10] was 0.032 and the “2-Compartment k3/(k2+k3)” value [10] was 0.224. The “2-Compartment K1” value [11] was 0.061 mL min-1 mL-1, the “2-Compartment K1/k2” value [11] was 0.536 mL mL-1 and the 2-Compartment Vb [11] was 10.2%. For the same molecule, the “2-Compartment k3” value [11] was 0.020 min⁻¹, the “2-Compartment k3*K1/k2” value [11] was 0.011 and the “2-Compartment k3/(k2+k3)” value [11] was 0.150. The “2-Compartment K1” value [12] was 0.063 mL min-1 mL-1, the “2-Compartment K1/k2” value [12] was 0.767 mL mL-1 and the 2-Compartment Vb [12] was 10.5%. The “2-Compartment k3” value [12] was 0.032 min⁻¹, the “2-Compartment k3*K1/k2” value [12] was 0.025 and the “2-Compartment k3/(k2+k3)” value [12] was 0.280.
